In assay [1] the test system is Uterus. Nature of the assay: Antispasmodic activity against oxytocin-induced contraction in Wistar rat uterus at 1.1 ug/ml. Format: functional, tissue-based.
The subject of assay [2] is Uterus. Nature of the assay: Antispasmodic activity against oxytocin-induced contraction in Wistar rat uterus at 2.2 ug/ml. In kind it is functional, tissue-based.
Assay [3] has as its system Rattus norvegicus. Nature of the assay: Antiinflammatory activity against carrageenan-induced plantar edema in Wistar rat hind paw at 66 mg/kg, ip administered 1 hr before carrageenan challenge measured after 3 hrs. The settings on record: route intraperitoneal. Format: functional.
For assay [4], the system named is Rattus norvegicus. In words: Antiinflammatory activity against carrageenan-induced plantar edema in Wistar rat hind paw at 33 mg/kg, ip administered 1 hr before carrageenan challenge measured after 3 hrs. The settings on record: route intraperitoneal. In kind it is functional. In general terms: Carrageenan injected into the paw causes an acute inflammation.
Assay [5] concerns Rattus norvegicus. Nature of the assay: Antiinflammatory activity against carrageenan-induced plantar edema in Wistar rat hind paw at 40 mg/kg, ip administered 1 hr before carrageenan challenge measured after 1 hrs. In kind it is functional. The settings on record: route intraperitoneal.
Assay [6] relates to Rattus norvegicus. In words: Antiinflammatory activity against carrageenan-induced plantar edema in Wistar rat hind paw at 80 mg/kg, ip administered 1 hr before carrageenan challenge measured after 3 hrs. The settings on record: route intraperitoneal. In kind it is functional.
Assay [7] relates to Rattus norvegicus. Nature of the assay: Antiinflammatory activity against carrageenan-induced plantar edema in Wistar rat hind paw at 20 mg/kg, ip administered 1 hr before carrageenan challenge measured after 1 hrs. The settings on record: route intraperitoneal. Format: functional.
Assay [8] has as its system Rattus norvegicus. Nature of the assay: Antiinflammatory activity against carrageenan-induced plantar edema in Wistar rat hind paw at 40 mg/kg, ip administered 1 hr before carrageenan challenge measured after 3 hrs. Format: functional. The settings on record: route intraperitoneal.
The subject of assay [9] is Rattus norvegicus. Nature of the assay: Antiinflammatory activity against carrageenan-induced plantar edema in Wistar rat hind paw at 20 mg/kg, ip administered 1 hr before carrageenan challenge measured after 3 hrs. The settings on record: route intraperitoneal. In kind it is functional.
Assay [10] concerns Rattus norvegicus. In words: Antiinflammatory activity against carrageenan-induced plantar edema in Wistar rat hind paw at 40 mg/kg, ip administered 1 hr before carrageenan challenge measured after 5 hrs. Format: functional. The settings on record: route intraperitoneal.
The subject of assay [11] is Rattus norvegicus. Nature of the assay: Antiinflammatory activity against carrageenan-induced plantar edema in Wistar rat hind paw at 20 mg/kg, ip administered 1 hr before carrageenan challenge measured after 5 hrs. In kind it is functional. The settings on record: route intraperitoneal.
For assay [12], the system named is Rattus norvegicus. Nature of the assay: Antiinflammatory activity against carrageenan-induced plantar edema in Wistar rat hind paw at 80 mg/kg, ip administered 1 hr before carrageenan challenge measured after 5 hrs. Format: functional. The settings on record: route intraperitoneal.
Assay [13] concerns Rattus norvegicus. Nature of the assay: Antiinflammatory activity against carrageenan-induced plantar edema in Wistar rat hind paw at 80 mg/kg, ip administered 1 hr before carrageenan challenge measured after 1 hrs. In kind it is functional. The settings on record: route intraperitoneal.

Active and inactive are the calls of the source. The rule behind the calls is not given here.

As to `CC1=CCC2C(C1)C2(C)C` (configuration not stated) [CARENE], the result with Uterus [1] and in the assay on Uterus [2] was Active. The Activity with Rattus norvegicus [3] came out at 77%; in the assay with Rattus norvegicus [4] it was 50.3%.

As to `C=C1CCC2CC1C2(C)C` (stereo not drawn) [BETA-PINENE], the Activity with Rattus norvegicus [5] amounted to 27.5%; with Rattus norvegicus [6] it was 32.2%; in the assay with Rattus norvegicus [7], 20.5%; in the assay on Rattus norvegicus [8], 19.2%; with Rattus norvegicus [9], 15.1%; in the assay on Rattus norvegicus [10], 14.9%. The Activity with Rattus norvegicus [11] is recorded as 16.7%; in the assay on Rattus norvegicus [12], 31.9%; with Rattus norvegicus [13] it was 8.7%.

For `CC1=CCC2CC1C2(C)C` (stereo not drawn) [ALPHA-PINENE], the Activity in the assay with Rattus norvegicus [5] came out at 20.4%; in the assay on Rattus norvegicus [6], 26.2%; with Rattus norvegicus [7], 5.6%; with Rattus norvegicus [8], 21%; in the assay on Rattus norvegicus [9], 8.9%; in the assay with Rattus norvegicus [10], 14%. For the same molecule, the Activity is given as -1.6% in the assay with Rattus norvegicus [11], 13.2% with Rattus norvegicus [12] and 19% with Rattus norvegicus [13].
